Measurements taken from ChEMBL document CHEMBL2169885, “Synthesis and biological evaluation of optically active Ki16425” (Bioorg Med Chem Lett, 2012).
Active and inactive are the calls of the source. The rule behind the calls is not given here.

Legend:
[1] = biological target: Lysophosphatidic acid receptor 2 (Homo sapiens) (UniProt Q9HBW0); assay: Antagonist activity at human LPA2 receptor expressed in HEK293 cells assessed as inhibition of LPA-induced AP-TGF-alpha release treated 5 mins before LPA addition measured after 60 mins; type: functional, cell-based
Chain of Lysophosphatidic acid receptor 2 (Homo sapiens) (Q9HBW0 whole entry): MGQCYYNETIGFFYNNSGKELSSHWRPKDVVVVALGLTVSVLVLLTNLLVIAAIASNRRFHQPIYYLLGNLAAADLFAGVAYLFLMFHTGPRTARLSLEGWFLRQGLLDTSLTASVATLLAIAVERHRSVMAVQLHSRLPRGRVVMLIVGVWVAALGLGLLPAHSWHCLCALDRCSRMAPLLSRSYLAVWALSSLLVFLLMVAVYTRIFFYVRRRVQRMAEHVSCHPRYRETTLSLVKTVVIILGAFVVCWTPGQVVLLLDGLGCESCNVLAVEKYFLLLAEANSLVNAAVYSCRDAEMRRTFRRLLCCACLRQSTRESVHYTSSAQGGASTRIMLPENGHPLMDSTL

PC-3 = assay: Antagonist activity at LPA receptor in human PC3 cells assessed as inhibition of LPA-induced cell migration; type: functional, cell-based

| inhibition [1] | Compound | inhibition (PC-3) |
| --- | --- | --- |
| Active | Cc1noc(-c2ccc(CSCCC(=O)O)cc2)c1NC(=O)OC(C)c1ccccc1Cl (racemic) | Active |
| Active | Cc1noc(-c2ccc(CSCCC(=O)O)cc2)c1NC(=O)O[C@H](C)c1ccccc1Cl | Active |
| Active | Cc1noc(-c2ccc(CSCCC(=O)O)cc2)c1NC(=O)O[C@@H](C)c1ccccc1Cl | Active |
